Values of other authors in article PMC9851200, “Multiparameter phenotypic screening for endogenous TFEB and TFE3 translocation identifies novel chemical series modulating lysosome function” (Autophagy, 2022).

What was measured:
Parameters in all cases: method as in original PKIS2 published data
[1] = biological target: T1, kinases (KINOMEscan panel) (Homo sapiens, UniProt Q99759); conditions: MAP3K3; Published KINOMEscan; ref original PKIS2 published data; cited from earlier work
T1 sequence (Q99759 1-626): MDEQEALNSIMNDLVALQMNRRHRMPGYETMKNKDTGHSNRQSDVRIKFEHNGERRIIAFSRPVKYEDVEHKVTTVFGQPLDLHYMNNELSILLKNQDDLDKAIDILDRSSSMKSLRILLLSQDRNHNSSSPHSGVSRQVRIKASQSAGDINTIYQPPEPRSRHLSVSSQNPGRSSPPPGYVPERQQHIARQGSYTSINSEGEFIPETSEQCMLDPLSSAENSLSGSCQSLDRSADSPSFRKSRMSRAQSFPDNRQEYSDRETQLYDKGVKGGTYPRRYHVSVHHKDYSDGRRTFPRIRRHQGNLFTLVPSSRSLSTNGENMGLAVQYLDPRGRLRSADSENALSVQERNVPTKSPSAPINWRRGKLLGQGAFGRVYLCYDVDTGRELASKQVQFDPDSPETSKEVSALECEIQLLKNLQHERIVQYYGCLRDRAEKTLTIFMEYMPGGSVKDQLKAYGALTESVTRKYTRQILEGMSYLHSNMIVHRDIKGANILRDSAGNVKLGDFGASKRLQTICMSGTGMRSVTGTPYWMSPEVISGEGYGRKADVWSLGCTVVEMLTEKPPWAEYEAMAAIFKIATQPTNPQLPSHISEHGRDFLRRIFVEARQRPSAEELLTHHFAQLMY

[2] = biological target: T2, kinases (KINOMEscan panel) (Homo sapiens, UniProt P42681); conditions: kinase TXK; Published KINOMEscan; ref original PKIS2 published data; cited from earlier work
T2 sequence (P42681 1-527): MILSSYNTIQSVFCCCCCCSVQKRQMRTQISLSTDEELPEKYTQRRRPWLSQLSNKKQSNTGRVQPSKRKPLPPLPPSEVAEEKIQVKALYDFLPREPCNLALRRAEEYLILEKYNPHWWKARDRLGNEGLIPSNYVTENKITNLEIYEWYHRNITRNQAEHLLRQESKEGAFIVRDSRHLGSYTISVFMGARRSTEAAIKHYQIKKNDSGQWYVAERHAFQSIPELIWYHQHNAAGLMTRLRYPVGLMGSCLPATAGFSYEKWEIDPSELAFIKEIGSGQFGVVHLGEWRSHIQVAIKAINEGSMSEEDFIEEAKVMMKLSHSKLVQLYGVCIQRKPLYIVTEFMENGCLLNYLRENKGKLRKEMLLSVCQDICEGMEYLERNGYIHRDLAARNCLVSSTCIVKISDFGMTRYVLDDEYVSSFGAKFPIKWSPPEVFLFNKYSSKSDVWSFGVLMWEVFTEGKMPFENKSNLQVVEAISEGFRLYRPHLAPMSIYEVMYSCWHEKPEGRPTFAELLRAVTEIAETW

[3] = biological target: T3, kinases (KINOMEscan panel) (Homo sapiens, UniProt Q9BRS2); conditions: RIOK1; Published KINOMEscan; ref original PKIS2 published data; cited from earlier work
T3 sequence (Q9BRS2 1-568): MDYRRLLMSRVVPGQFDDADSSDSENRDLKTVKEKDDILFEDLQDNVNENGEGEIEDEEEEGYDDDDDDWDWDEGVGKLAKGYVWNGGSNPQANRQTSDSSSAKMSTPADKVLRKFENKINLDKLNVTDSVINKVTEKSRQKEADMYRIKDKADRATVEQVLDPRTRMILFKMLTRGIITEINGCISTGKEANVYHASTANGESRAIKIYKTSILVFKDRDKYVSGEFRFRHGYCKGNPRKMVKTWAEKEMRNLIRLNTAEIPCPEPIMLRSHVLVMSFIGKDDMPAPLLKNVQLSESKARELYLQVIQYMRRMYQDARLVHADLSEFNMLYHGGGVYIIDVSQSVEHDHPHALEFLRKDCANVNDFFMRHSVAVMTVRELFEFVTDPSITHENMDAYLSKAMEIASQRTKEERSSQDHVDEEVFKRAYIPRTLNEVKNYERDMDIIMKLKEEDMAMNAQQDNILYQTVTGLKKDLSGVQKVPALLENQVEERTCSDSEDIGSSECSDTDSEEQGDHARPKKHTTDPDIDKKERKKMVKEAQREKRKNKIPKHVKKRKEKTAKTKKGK

[4] = biological target: kinases (KINOMEscan panel) (Homo sapiens, UniProt Q16816); conditions: PHKG1; Published KINOMEscan; ref original PKIS2 published data; cited from earlier work
[5] = biological target: T4, kinases (KINOMEscan panel) (Homo sapiens, UniProt P54753); conditions: kinase EPHB3; Published KINOMEscan; ref original PKIS2 published data; cited from earlier work
T4 sequence (P54753 34-998): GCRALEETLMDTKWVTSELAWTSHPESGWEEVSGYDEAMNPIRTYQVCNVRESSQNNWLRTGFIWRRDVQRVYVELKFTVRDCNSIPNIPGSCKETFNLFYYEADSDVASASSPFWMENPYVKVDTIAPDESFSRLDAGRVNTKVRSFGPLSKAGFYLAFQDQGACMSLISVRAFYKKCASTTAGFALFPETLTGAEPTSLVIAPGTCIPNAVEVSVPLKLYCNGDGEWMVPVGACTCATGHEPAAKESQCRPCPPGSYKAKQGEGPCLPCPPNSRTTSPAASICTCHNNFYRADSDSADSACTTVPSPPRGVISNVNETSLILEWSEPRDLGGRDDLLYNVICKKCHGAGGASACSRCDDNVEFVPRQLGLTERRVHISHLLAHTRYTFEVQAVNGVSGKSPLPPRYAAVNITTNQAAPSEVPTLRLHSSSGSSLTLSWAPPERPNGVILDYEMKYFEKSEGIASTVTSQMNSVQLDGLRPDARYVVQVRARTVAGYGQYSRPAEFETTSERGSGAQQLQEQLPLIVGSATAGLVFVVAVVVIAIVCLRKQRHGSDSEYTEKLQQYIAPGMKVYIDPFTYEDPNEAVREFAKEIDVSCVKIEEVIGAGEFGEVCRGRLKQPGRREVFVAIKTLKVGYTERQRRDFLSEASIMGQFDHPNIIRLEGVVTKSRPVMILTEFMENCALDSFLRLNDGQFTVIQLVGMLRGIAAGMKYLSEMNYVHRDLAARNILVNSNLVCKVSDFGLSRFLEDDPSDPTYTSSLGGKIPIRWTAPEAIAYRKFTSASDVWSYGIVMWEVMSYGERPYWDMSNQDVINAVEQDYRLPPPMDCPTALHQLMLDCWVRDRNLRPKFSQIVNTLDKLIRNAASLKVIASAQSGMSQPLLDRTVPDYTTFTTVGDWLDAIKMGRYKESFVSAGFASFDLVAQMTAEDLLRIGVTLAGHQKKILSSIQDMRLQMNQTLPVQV

Sequence of kinases (KINOMEscan panel) (Homo sapiens, UniProt Q16816) (Q16816 whole entry): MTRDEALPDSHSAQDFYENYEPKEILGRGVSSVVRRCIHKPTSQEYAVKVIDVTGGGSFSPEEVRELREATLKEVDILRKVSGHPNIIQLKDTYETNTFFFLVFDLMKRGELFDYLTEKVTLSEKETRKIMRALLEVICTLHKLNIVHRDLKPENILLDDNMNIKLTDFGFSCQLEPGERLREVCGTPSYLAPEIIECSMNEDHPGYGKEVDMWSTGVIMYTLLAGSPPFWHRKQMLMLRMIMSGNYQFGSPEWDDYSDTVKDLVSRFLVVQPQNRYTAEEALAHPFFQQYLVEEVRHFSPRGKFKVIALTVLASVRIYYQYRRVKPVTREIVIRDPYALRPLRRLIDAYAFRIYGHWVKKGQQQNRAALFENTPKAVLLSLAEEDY

In the case of `Cc1cccc(-c2nc(Nc3ccncc3)c3ccccc3n2)n1` [NK215], the “KINOMEscan MAP3K3” value [1] is listed as 0, the “KINOMEscan TXK” value [2] is listed as 11 and the “KINOMEscan RIOK1” value [3] is listed as 0. The “KINOMEscan PHKG1” value [4] was 47 and the “KINOMEscan EPHB3” value [5] was 11.
